# Experimental data reported in patent US7160732B2, “Fluorescein-based metal sensors, and methods of making and using the same” (Massachusetts Institute of Technology, priority 2000, dated 2007).
# Columns and labels:
# [1] = Excitation maximum and extinction coefficient, free and upon Zn^2+ complexation; type: physicochemical; conditions: pH 7
# Description: (§1) Absorption spectra were recorded on a Hewlett Packard 8453A diode array spectrophotometer under the control of a Pentium II-based PC running the Windows NT ChemStation software package, or a Cary 1E scanning spectrophotometer under the control of a Pentium PC running the manufacturer supplied software package. Spectra were routinely acquired at 25° C., maintained by a circulating water bath in 1 cm path length quartz cuvettes with a volume of 1.0 or 3.5 mL.
# (§2) Under pseudo physiological conditions (50 mM PIPES, 100 mM KCl) at pH 7 in the presence of EDTA to scavenge advantageous metal ions, Formula 16 has a quantum yield of 0.25. The quantum yield increases to 0.92 in the presence of 25 μM Zn^2+. The excitation maximum of Formula 16 shifts from 498 nm (ε=36.8×10^3 M^−1cm^−1) to 490 nm (ε=44.9×10^3 M^−1cm^−1) upon Zn^2+ complexation. The slight hypsochromatic shift in the absorption wavelength is indicative of the coordination of the donor group (phenol) to Zn^2+. Since the phenol is incorporated in the π-system of the fluorophore, coordination to a metal would be expected to perturb the electronic structure of the system and produce a shift in the excitation wavelength. […] Under most conditions, cadmium concentrations are much lower than zinc concentrations in biological samples.
# [2] = Quantum yield of fluorescence, metal free and Zn^2+ bound ligand; type: physicochemical; conditions: 50 mM PIPES, 100 mM KCl
# From the text: Quantum yield, Φ, may be obtained by comparison of the integrated area of the corrected emission spectrum of the sample with that of a reference solution. A preferred reference solution is a solution of fluorescein in 0.1 N NaOH, quantum efficiency 0.95. The concentration of the reference is adjusted to match the absorbance, Abs, of the test sample. The quantum yields may be calculated using the following equation: […]
# The quantum yields of fluorescence were obtained by comparison of the integrated area of the corrected emission spectrum of the sample with that of a solution of fluorescein in 0.1 N NaOH, quantum efficiency 0.95. The concentration of the reference was adjusted to match the absorbance of the test sample. The quantum efficiency of the metal free ligand was measured using dilute sample of Formula 16 dye (˜1×10^−6 M, Abs≦0.1) in 10 mM PIPES, 100 mM KCl and 50 μM EDTA, pH=7.0. The quantum efficiency of the metal bound ligand was measured using a dilute sample of Formula 16 (˜8×10^−7 M, Abs≦0.1) in 10 mM PIPES, 100 mM KCl and 100 μM ZnCl2, pH=7.0. Emission for Formula 16 was integrated from 496 to 600 nm with excitation at 492 nm. The quantum yields were calculated with the following equation.
# as §2
# [3] = Zn^2+ affinity of reference chelator complexes; type: binding; conditions: pH 7
# Description: (§3) The fluorescent increase and binding affinity for Zn^2+ were characterized using a dual-metal single-ligand buffer system comprised of 1 mM EDTA, 2 mM Ca^2+ (or Mg^2+ up to 5 mM) and 0–1 mM total Zn^2+. […] The quantum yield of Formula 16 increases by ˜3.7-fold, and the integrated emission increases 6.0-fold.
# (§4) The Zn^2+ affinity of Formula 16 was determined by performing these measurements in triplicate using different Ca^2+/EDTA/Zn^2+ buffers (FIG. 3, left panel). The fluorescence response of the ligand of Formula 16 to the solutions was measured by excitation of the solution at 490 nm with 0.25 nm slit width and detecting the emission over 500 to 575 nm. The buffer solutions contained 100 mM KCl, 50 mM PIPES, pH=7.2 mM Ca2+, 1 mM EDTA and varying free Zn2+concentrations of 0, 0.172, 0.424, 0.787, 1.32, 2.11, 3.34, 5.60, 10.2, and 24.1 nM. The measurements indicate that Formula 16 has a Kd of 0.5±0.1 nM (mean ±esd), obtained by a hyperbolic fit to the plot of the area under each fluorescence peak versus the Zn2+ concentration at which it was measured (FIG. 3, right panel). […] The fluorescence response fits to a Hill coefficient of 1, consistent with the formation of a 1:1 ligand:Zn^2+ complex responsible for the enhancement.
# [4] = Fluorescence response to other metal ions
# Description: (§5) Fluorescence spectra were recorded on a Hitachi F-3010 spectrofluorimeter under the control of a Pentium-based PC running the SpectraCalc software package. Excitation was provided by a 150 W Xe lamp (Ushio Inc.) operating at a current of 5 A. All spectra were normalized for excitation intensity via a rhodamine quantum counter, and emission spectra were normalized by the manufacturer-supplied correction curves. Spectra were routinely acquired at 25° C., maintained by a circulating water bath in 1 cm×1 cm quartz cuvettes using 3 nm slit widths and a 240 nm/min scan speed. Fluorescence emission measurements were also acquired in a 1 cm×1 cm quartz cell using a Spex Fluorolog-2 instrument with 1 nm bandwidth slits. All spectra were corrected for emission intensity using the manufacturer-supplied photomultiplier curves. Spectra were routinely acquired at 25° C., maintained by a circulating water bath.
# as §2
# [5] = test system: intracellular Zn^2+ in HeLa cells; experiment: Detection of intracellular Zn^2+ by fluorescence microscopy; type: cell-based
# Description: (§6) The ability of a fluorescein-based ligand of Formula 16 to act as a sensor for intracellular Zn^2+ was tested in COS-7 (FIG. 5) and HeLa cells (FIG. 6), using a Formula 16. Both cell types were treated with 5 μM of the fluorescein-based ligand of Formula 16 for one hour at 37° C. […] Similar observations have been made using quinoline-based Zn^2+ probes in undifferentiated mammalian cells.
# (§7) Intracellular Zn^2+ concentrations were increased by incubating the cells with Zn^2+ in the presence of pyrithione, a Zn^2+ ionophore. […] Available Zn^2+ was decreased by treatment with the membrane permeable Zn^2+-chelator, TPEN.
# [6] = test system: intracellular Zn^2+ in COS-7 cells; experiment: as above; type: cell-based
# Description: as §6, §7
# [7] = Absorption titration, second Zn^2+ binding event (Kd2); conditions: physiologically relevant pH
# Description: as §1
# The binding of Zn^2+ by a fluorescein-based ligand of Formula 16 is accompanied by changes in the absortion spectra. […] Addition of greater than one equivalent of Zn^2+ produces small changes in the absorption spectra of the ligand. The change fits to a Kd2 of 10±2 μM (486 nm), and decreases to 7.5±2.5 μM (508 nm).
# [8] = pH dependent fluorescence (apparent fluorescence pKa); type: physicochemical
# Description: The apparent fluorescence pKa was measured by plotting the integrated area of the emission spectrum against the pH recorded from pH=12.5–2.5. A 1 μM solution of the ligand of Formula 16 (10 mLs) containing ˜1 mM KOH and 100 mM KCl was adjusted to pH 12.5 and the UV-vis and fluorescence spectra were recorded. The pH was lowered in steps of ΔpH=0.5 with the addition of appropriate amounts of 6 N, 2 N, 0.5 N, 1 N, 0.1 N and 0.01 N HCl recording the absorption and emission spectra at each pH interval. The volume of the solution was controlled so the overall change in volume was <2%. Emission for the fluorescein-based ligand of […] was integrated from 500 to 700 nm. The resulting integrated emission areas were normalized, plotted against pH, and fit with the following nonlinear equation to calculate the pKa values. In the equation, ΔF1max and ΔF2max are the maximum fluorescence changes associated with the corresponding pKa values at the pH at which the maximum occurs.
# The fluorescence of the Formula 16 ligand is enhanced by protons. […] At high pH, the magnitude of Zn^2+-induced fluorescent enhancement is more dramatic, increasing over 200-fold at pH 12.
# [9] = Fluorescence response to Zn^2+
# Description: as §5, with “bath. […]” for “bath.”
# The fluorescence of the Formula 16 ligand is enhanced by protons. […]
# Under pseudo physiological conditions (50 mM PIPES, 100 mM KCl) at pH 7 in the presence of EDTA to scavenge advantageous metal ions, Formula 57 has a quantum yield of 0.06. […] The fluorescence of Formula 57 also appears to be pH dependent. These fluorescence results are preliminary and are not intended to limit the scope of the invention in any way.
# [10] = Lactone formation under aqueous conditions; type: physicochemical; conditions: even at high [Zn^2+] (200 μM)
# Description: Binding of the first Zn^2+ more efficiently interrupts the PET process and increases the band gap between the S0 and S1 energy levels. The Kd1 is lower than that of DPA because of the additional coordination by the phenolic oxygen. […] (200 μM). These conclusions are preliminary and are not intended to limit the scope of the invention in any way.
# [11] = Fluorescence Zn^2+ binding titration (Kd) in Ca^2+/EDTA/Zn^2+ buffers; conditions: 1 mM EDTA, 2 mM Ca^2+, 0–1 mM total Zn^2+
# Description: The first Kd associated with Zn^2+ binding was measured by a fluorescence titration as described previously. Spectra of the fluorescence of the ligand of Formula 16 were acquired by exciting at 490 nm and collecting and integrating from 500–575 nm. The measurements were performed in triplicate to ensure accuracy of the Kd value.
# as §3
# as §4, with “nM.” for “nM. The measurements indicate that Formula 16 has a Kd of 0.5±0.1 nM (mean ±esd), obtained by a hyperbolic fit to the plot of the area under each fluorescence peak versus the Zn2+ concentration at which it was measured (FIG. 3, right panel).”
# [12] = pH 7, in the presence of EDTA (metal free)
# [13] = fit of integrated emission versus pH, 100 mM KCl
smiles,measurement,setting,value
O=C1OC2(c3ccccc31)c1cc(Cl)c(O)c(CN(Cc3ccccn3)Cc3ccccn3)c1Oc1c2cc(Cl)c(O)c1CN(Cc1ccccn1)Cc1ccccn1 [Formula 31],excitation maximum,[1]; upon Zn^2+ complexation,507 nm
same,ε at excitation maximum,[1]; upon Zn^2+ complexation,84000 M⁻¹ cm⁻¹
same,quantum yield,[2]; [12],0.39
same,quantum yield,"[2]; pH 7, in the presence of Zn^2+ (concentration not given)",0.87
[Zn+2].c1ccc(CNCc2ccccn2)nc1 [[Zn(DPA)]^2+],weaker binding than the ligand of Formula 16,[3],approximately 2 orders of magnitude
O=C1OC2(c3ccccc31)c1ccc(O)c(CN(Cc3ccccn3)Cc3ccccn3)c1Oc1c2ccc(O)c1CN(Cc1ccccn1)Cc1ccccn1 [Formula 16],change in fluorescence intensity,[4]; Ca^2+,no measurable change in intensity
same,effect on fluorescence,[4]; Cd^2+,increase in fluorescence
same,effect on fluorescence,[4]; Co^2+,quench fluorescence
same,effect on fluorescence,[4]; Cu^2+,quench fluorescence
same,effect on fluorescence,[4]; Fe^2+,quench fluorescence
same,change in fluorescence intensity,[4]; Mg^2+,no measurable change in intensity
same,effect on fluorescence,[4]; Mn^2+,quench fluorescence
same,effect on fluorescence,[4]; Ni^2+,quench fluorescence
same,fluorescent staining of cells,"[5]; 5 μM ligand, one hour at 37° C.",bright fluorescent staining
same,fluorescent signal after Zn^2+ chelation,[5]; TPEN,decreased the fluorescent signal
same,fluorescent signal after raising intracellular Zn^2+,[5]; Zn^2+ with pyrithione,increase in the fluorescent signal
same,fluorescent staining of cells,"[6]; 5 μM ligand, one hour at 37° C., particularly perinuclear region (Golgi)",bright fluorescent staining
same,fluorescent signal after Zn^2+ chelation,[6]; TPEN,decreased the fluorescent signal
same,fluorescent signal after raising intracellular Zn^2+,[6]; Zn^2+ with pyrithione,increase in the fluorescent signal
same,excitation maximum,[1]; before Zn^2+ complexation,498 nm
same,ε at excitation maximum,[1]; before Zn^2+ complexation,36800 M⁻¹ cm⁻¹
same,excitation maximum,[1]; upon Zn^2+ complexation,490 nm
same,ε at excitation maximum,[1]; upon Zn^2+ complexation,44900 M⁻¹ cm⁻¹
same,fluorescence change at the second binding event,[7],not associated with a measurable change in fluorescence
same,quantum yield,"[2]; pH 7, in the presence of 25 μM Zn^2+",0.92
same,quantum yield,[2]; [12],0.25
same,pH of maximum fluorescence,[8],~5.5
same,"apparent pKa,1",[8]; [13],3.9
same,"apparent pKa,2",[8]; [13],9.4
same,fluorescence at high pH,[8]; pH>12,almost completely quenched
same,selectivity of the fluorescence response,[9]; compared with other metal ions,Zn^2+ selective
same,Zn^2+-induced fluorescent enhancement,[9]; pH 12,over 200 fold
same,lactone formation,[10],no lactone formation
same,increase of integrated emission on Zn^2+ binding,[11],6.0 fold
same,increase of quantum yield on Zn^2+ binding,[11],~3.7 fold
